For four molecules, carcinogen call results are on record in PubChem BioAssay AID1259411 (Chemical Carcinogenesis Research Information System (CCRIS), 2018).

For the data set, the system named is rodent carcinogenicity bioassays, tumor incidence. The data set can be described thus: CCRIS carcinogenicity studies. A digest of the protocol:
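NCI-built, expert-reviewed records of carcinogenicity and related test outcomes (mutagenicity, tumor promotion/inhibition) compiled from published and report sources, historical span 1985-2011, not updated.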

Active and inactive are the calls of the source. How the calls were made is not given here.

With `CC/C(=C(/CC)c1ccc(O)cc1)c1ccc(O)cc1`, the carcinogen call was “active; positive” (Species: HAMSTER, Route: PRE-NATAL EXPOSURE, Tumor Site: Type of Lesion: UTERUS, ACCESSORY SEX ORGANS (M), VAGINA, CERVIX, Tumor Site: Type of Lesion: UTERUS, ACCESSORY SEX ORGANS (M), VAGINA, CERVIX); “active; positive” (Species: HAMSTER, Route: SUBCUTANEOUS IMPLANT, Tumor Site: Type of Lesion: KIDNEY); “active; positive” (Species: HAMSTER, Route: SUBCUTANEOUS, Tumor Site: Type of Lesion: KIDNEY); “active; positive” (Species: HAMSTER, Strain/Sex: SYRIAN/MALE, Route: SUBCUTANEOUS IMPLANT, Dose: 0, 20 MG IN PELLETS IMPLANTED EVERY 2.5 MO FOR 9 MO (STUDY DURATION: 9 MO), Tumor Site: Type of Lesion: KIDNEY: TUMOR); “active; positive” (Species: HUMAN, Route: DERMAL, Tumor Site: Type of Lesion: CERVIX OR VAGINA); “active; positive” (Species: MONKEY, Route: SUBCUTANEOUS, Tumor Site: Type of Lesion: UTERUS). In addition, the carcinogen call was “active; positive” (Species: MOUSE, Route: NEO-NATAL EXPOSURE, Tumor Site: Type of Lesion: CERVIX, VAGINA); “active; positive” (Species: MOUSE, Route: ORAL, Tumor Site: Type of Lesion: MAMMARY GLAND, CERVIX, VAGINA, Tumor Site: Type of Lesion: MAMMARY GLAND, CERVIX, VAGINA); “active; positive” (Species: MOUSE, Route: PRE-NATAL EXPOSURE, Tumor Site: Type of Lesion: CERVIX, VAGINA, OVARIES, Tumor Site: Type of Lesion: CERVIX, VAGINA, OVARIES); “active; positive” (Species: MOUSE, Route: SUBCUTANEOUS IMPLANT, Tumor Site: Type of Lesion: TESTES, MAMMARY GLAND, LYMPHATIC SYSTEM, Tumor Site: Type of Lesion: TESTES, MAMMARY GLAND, LYMPHATIC SYSTEM); “active; positive” (Species: MOUSE, Route: SUBCUTANEOUS, Tumor Site: Type of Lesion: MAMMARY GLAND, GENITAL TRACT, OVARIES, Tumor Site: Type of Lesion: MAMMARY GLAND, GENITAL TRACT, OVARIES); “active; positive” (Species: MOUSE, Strain/Sex: C3H/FEMALE, Route: ORAL, Dose: 0, 2.5, 5, 10, 20, 40, 80, 160, 320, 640 PPB IN DIET (STUDY DURATION: 455 D), Dose: 0, 2.5, 5, 10, 20, 40, 80, 160, 320, 640 PPB IN DIET (STUDY DURATION: 455 D), Tumor Site: Type of Lesion: MAMMARY GLAND: ADENOCARCINOMA). Besides, the carcinogen call (Species: MOUSE, Strain/Sex: C57BL/6/MALE,FEMALE (WILD TYPE), Route: DIET, Dose: 0, 1500 PPB IN DIET FOR 39 WKS (STUDY DURATION: 39 WKS)) is “inactive; negative”; the carcinogen call (Species: MOUSE, Strain/Sex: C57BL/6/XPA/P53/MALE,FEMALE (TRANSGENIC), Route: DIET, Dose: 0, 1500 PPB IN DIET FOR 39 WKS (STUDY DURATION: 39 WKS), Tumor Site: Type of Lesion: BONE: OSTEOSARCOMA (MALES ONLY), TESTICULAR INTERSTITIAL CELL ADENOMA (BENIGN), MALES) is “active; positive in males only”; the carcinogen call (Species: MOUSE, Strain/Sex: C57BL/6XPA/MALE,FEMALE (TRANSGENIC), Route: DIET, Dose: 0, 100, 300, 1500 PPB IN DIET FOR 39 WKS (STUDY DURATION: 39 WKS), Dose: 0, 100, 300, 1500 PPB IN DIET FOR 39 WKS (STUDY DURATION: 39 WKS), Tumor Site: Type of Lesion: PITUITARY: ADENOMA (BENIGN)) is listed as “significant in males at 1500 ppb only”; the carcinogen call (Species: MOUSE, Strain/Sex: CD-1/FEMALE, Route: INTRAPERITONEAL, Dose: 0, 1 UG/G BW ADMINISTERED TO PREGNANT MICE AT 16 D AND 16 HR, 17 D, OR 17 D 16 HR POST CONCEPTION OR 2 UG/G BW AT 17 D 1, Tumor Site: Type of Lesion: PITUITARY GLAND: TUMOR) is “active; positive”; the carcinogen call (Species: RAT, Route: NEO-NATAL EXPOSURE, Tumor Site: Type of Lesion: ACCESSORY SEX ORGANS (M)) is “active; positive”; the carcinogen call (Species: RAT, Route: ORAL, Tumor Site: Type of Lesion: MAMMARY GLAND, PITUITARY GLAND) was “active; positive”. The carcinogen call reads like this: (Species: RAT, Route: SUBCUTANEOUS IMPLANT, Tumor Site: Type of Lesion: MAMMARY GLAND, URINARY BLADDER) “active; positive”; (Species: RAT, Route: SUBCUTANEOUS, Tumor Site: Type of Lesion: MAMMARY GLAND, PITUITARY GLAND) “active; positive”; (Species: RAT, Strain/Sex: ACI/FEMALE, Route: SUBCUTANEOUS IMPLANT, Dose: 0, 1.25 MG/100 G ONCE IN A 20 MG PELLET AT AGES 75, 127 AND 177 D (STUDY DURATION: 347-365 D), Tumor Site: Type of Lesion: MAMMARY GLAND: ADENOCARCINOMA) “active; positive”; (Species: RAT, Strain/Sex: WISTAR/FEMALE, Route: SUBCUTANEOUS, Dose: 0, 0.1, 0.5 MG/KG TO MOTHERS ON D 18, 19 AND 20 OF GESTATION (STUDY DURATION: 2 YR), Dose: 0, 0.1, 0.5 MG/KG TO MOTHERS ON D 18, 19 AND 20 OF GESTATION (STUDY DURATION: 2 YR), Tumor Site: Type of Lesion: VAGINA: TUMOR) “active; positive”; (Species: RAT, Strain/Sex: WISTAR/FEMALE, Route: SUBCUTANEOUS, Dose: 0, 25, 50 MG/KG TO MOTHERS ON D 19 AND 20 OF GESTATION (STUDY DURATION: 2 YR), Dose: 0, 25, 50 MG/KG TO MOTHERS ON D 19 AND 20 OF GESTATION (STUDY DURATION: 2 YR), Tumor Site: Type of Lesion: VAGINA: TUMOR) “active; positive”.
For `O=[N+]([O-])c1c2ccccc2cc2c3ccccc3c3ccccc3c12`, the carcinogen call (Species: MOUSE, Strain/Sex: B6C3F1/MALE, Route: INTRAPERITONEAL, Dose: 0, 400 NMOL IN 35 µL DMSO ON DAYS 1 (1/7 TOTAL DOSE), 8 (2/7 TOTAL DOSE), AND 15 (4/7 TOTAL DOSE) AFTER BIRTH (STUDY DUR) is “inactive; negative”.
With `Nc1nc2ncc(CNc3ccc(C(=O)N(N=O)[C@@H](CCC(=O)O)C(=O)O)cc3)nc2c(=O)[nH]1`, for the setting “Species: RAT, Route: ORAL, Tumor Site: Type of Lesion: LIVER”, the carcinogen call is “active; positive”.
In the case of `COC(N)=O`, the carcinogen call is “inactive; negative” (Species: MOUSE, Strain/Sex: B6C3F1/FEMALE, Route: GAVAGE, Dose: 0, 500, 1000 MG/KG IN DISTILLED WATER 5D/WK FOR 103 WK (STUDY DURATION: 105 WK), 1000 MG/KG IN DISTILLED WATER 5D/WK FOR, Dose: 0, 500, 1000 MG/KG IN DISTILLED WATER 5D/WK FOR 103 WK (STUDY DURATION: 105 WK), 1000 MG/KG IN DISTILLED WATER 5D/WK FOR); “inactive; negative” (Species: MOUSE, Strain/Sex: B6C3F1/MALE, Route: GAVAGE, Dose: 0, 500, 1000 MG/KG IN DISTILLED WATER 5D/WK FOR 103 WK (STUDY DURATION: 105 WK);1000 MG/KG IN DISTILLED WATER 5D/WK FOR, Dose: 0, 500, 1000 MG/KG IN DISTILLED WATER 5D/WK FOR 103 WK (STUDY DURATION: 105 WK);1000 MG/KG IN DISTILLED WATER 5D/WK FOR); “active; positive” (Species: RAT, Strain/Sex: F344/FEMALE, Route: GAVAGE, Dose: 0, 100, 200 MG/KG IN DISTILLED WATER 5D/WK FOR 103 WK (STUDY DURATION: 105 WK), 400 MG/KG IN DISTILLED WATER 5D/WK FOR 6, Dose: 0, 100, 200 MG/KG IN DISTILLED WATER 5D/WK FOR 103 WK (STUDY DURATION: 105 WK), 400 MG/KG IN DISTILLED WATER 5D/WK FOR 6, Tumor Site: Type of Lesion: LIVER: NEOPLASTIC NODULE, LIVER: NEOPLASTIC NODULE OR HEPATOCELLULAR CARCINOMA, LIVER: HEPATOCELLULAR CARCINOMA, Tumor Site: Type of Lesion: LIVER: NEOPLASTIC NODULE, LIVER: NEOPLASTIC NODULE OR HEPATOCELLULAR CARCINOMA, LIVER: HEPATOCELLULAR CARCINOMA); “active; positive” (Species: RAT, Strain/Sex: F344/MALE, Route: GAVAGE, Dose: 0, 100, 200 MG/KG IN DISTILLED WATER 5D/WK FOR 103 WK (STUDY DURATION: 105 WK), 400 MG/KG IN DISTILLED WATER 5D/WK FOR 6, Dose: 0, 100, 200 MG/KG IN DISTILLED WATER 5D/WK FOR 103 WK (STUDY DURATION: 105 WK), 400 MG/KG IN DISTILLED WATER 5D/WK FOR 6, Tumor Site: Type of Lesion: LIVER: NEOPLASTIC NODULES, LIVER: HEPATOCELLULAR CARCINOMA).
